Measured values as given in US20230295087A1, “AGONISTS OF ROR GAMMAt” (BRISTOL-MYERS SQUIBB COMPANY, priority 2019, published 2023).

Biological target: T1, human RORgT (Homo sapiens, UniProt P51449)
T1 construct: expressed in transfected cells
T1 sequence (P51449 267-516): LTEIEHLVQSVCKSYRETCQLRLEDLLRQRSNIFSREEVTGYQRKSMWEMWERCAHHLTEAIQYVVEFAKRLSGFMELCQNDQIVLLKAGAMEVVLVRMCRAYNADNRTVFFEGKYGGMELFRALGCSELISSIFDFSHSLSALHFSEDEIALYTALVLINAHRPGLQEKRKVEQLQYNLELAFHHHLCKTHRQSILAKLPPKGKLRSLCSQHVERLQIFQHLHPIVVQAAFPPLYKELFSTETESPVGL
Assay: RORgT Gal4 Luciferase Reporter Gene Assay
Type: cell-based
Details: engineered Jurkat cells overexpressing RORgT (LBD or full length) fused with Gal4 Luc reporter; 18 hours at 37° C.; luminescence
Method: RORgT Gal4 Luciferase Reporter Gene Assay
25 µL of cryopreserved Jurkat cells over expressing ligand binding domain (LBD) of RORgT (aa267-516, NM_005060) and Gal4 Luc, or full length of human RORgT and Gal4 Luc, were plated in 384-well solid white cell culture plates (PerkinElmer 6007899), with a density of 10,000 cells/well in RPMI 1640 cell culture media (Gibco 11875-085). The media contained 0.1% BSA, 10 mM HEPES (Gibco 15360-080), […] Sodium Pyruvate (Gibco 11360-040), […] Hygromycin B (Invitrogen 10687-010), and […] Blasticidin (Invitrogen R210-01).
100 nL of compound at varying concentrations in 3-fold serial dilution, with final concentrations ranging from 40 µM to 0.67 nM, were added to the cells using Labcyte Echo 550. The compound and the cells were incubated for 18 hours at 37° C. in a cell culture incubator. Cells were then lysed with 15 uL of Steady-Glo Luciferase Assay reagent (Promega EZ550), followed by centrifuging the assay plates at 1500 RPM for 1 minute. Subsequently, the plates were read on the Envision (PerkinElmer). The inhibition of constitutive activity of RORgT achieved by graded concentrations of compound was calculated as a percentage of the luminescence signal window reduction over a control compound.

Row | EC50 [nM] | Compound
1 | 114 | O=C(NC1CCOCC1)N1CC[C@@]2(S(=O)(=O)c3ccccc3)c3ccc(OCc4c(Cl)cccc4Cl)cc3CC[C@@H]12 [Example 89, (3aR,9bR)-9b-(benzenesulfonyl)-7-[(2,6-dichlorophenyl)methoxy]-N-(oxan-4-yl)-1H,2H,3H,3aH,4H,5H,9bH-benzo[e]indole-3-carboxamide]
2 | 667 | O=C1CCCN1CCN1CC[C@@]2(S(=O)(=O)c3ccccc3)c3ccc(OCc4c(Cl)cccc4Cl)cc3CC[C@@H]12 [Example 71, 1-{2-[(3aR,9bR)-9b-(benzenesulfonyl)-7-[(2,6-dichlorophenyl)methoxy]-1H,2H,3H,3aH,4H,5H,9bH-benzo[e]indol-3-yl]ethyl}pyrrolidin-2-one]
3 | 13 | CC(=O)N1CCC(C(=O)N2CC[C@@]3(S(=O)(=O)c4ccccc4)c4ccc(OCc5c(Cl)cccc5Cl)cc4CC[C@@H]23)CC1 [Example 57, 1-{4-[(3aR,9bR)-9b-(benzenesulfonyl)-7-[(2,6-dichlorophenyl)methoxy]-1H,2H,3H,3aH,4H,5H,9bH-benzo[e]indole-3-carbonyl]piperidin-1-yl}ethan-1-one]
4 | 34 | Cc1ccccc1COc1ccc2c(c1)CC[C@H]1N(C(=O)C3CCS(=O)(=O)CC3)CC[C@@]21S(=O)(=O)c1ccccc1 [Example 124, 4-[(3aR,9bR)-9b-(benzenesulfonyl)-7-[(2-methylphenyl)methoxy]-1H,2H,3H,3aH,4H,5H,9bH-benzo[e]indole-3-carbonyl]-1λ^6-thiane-1,1-dione]
5 | 9.5 | O=C(C1CCS(=O)(=O)CC1)N1CC[C@@]2(S(=O)(=O)c3ccccc3)c3ccc(OCc4c(F)cccc4C(F)(F)F)cc3CC[C@@H]12 [Example 132, 4-[(3aR,9bR)-9b-(benzenesulfonyl)-7-{[2-fluoro-6-(trifluoromethyl)phenyl]methoxy}-1H,2H,3H,3aH,4H,5H,9bH-benzo[e]indole-3-carbonyl]-1λ^6-thiane-1,1-dione]
6 | 14 | O=C(CN1CCS(=O)(=O)CC1)N1CC[C@@]2(S(=O)(=O)c3ccccc3)c3ccc(OCc4c(Cl)cccc4Cl)cc3CC[C@@H]12 [Example 74, 4-{2-[(3aR,9bR)-9b-(benzenesulfonyl)-7-[(2,6-dichlorophenyl)methoxy]-1H,2H,3H,3aH,4H,5H,9bH-benzo[e]indol-3-yl]-2-oxoethyl}-1λ^6-thiomorpholine-1,1-dione]
7 | 614 | CS(=O)(=O)NCC(=O)N1CC[C@@]2(S(=O)(=O)c3ccccc3)c3ccc(OCc4c(F)cccc4Cl)cc3CC[C@@H]12 [Example 145, N-{2-[(3aR,9bR)-9b-(benzenesulfonyl)-7-[(2-chloro-6-fluorophenyl)methoxy]-1H,2H,3H,3aH,4H,5H,9bH-benzo[e]indol-3-yl]-2-oxoethyl} methanesulfonamide]
8 | 14 | O=C(CN1CCS(=O)(=O)CC1)N1CC[C@@]2(S(=O)(=O)c3ccccc3)c3ccc(OCc4c(F)cccc4Cl)cc3CC[C@@H]12 [Example 139, 4-{2-[(3aR,9bR)-9b-(benzenesulfonyl)-7-[(2-chloro-6-fluorophenyl)methoxy]-1H,2H,3H,3aH,4H,5H,9bH-benzo[e]indol-3-yl]-2-oxoethyl}-1λ^6-thiomorpholine-1,1-dione]
9 | 14 | O=C(CN1CCS(=O)(=O)CC1)N1CC[C@@]2(S(=O)(=O)c3ccc(F)cc3)c3ccc(OCc4c(Cl)cccc4Cl)cc3CC[C@@H]12 [Example 173, 4-{2-[(3aR,9bR)-7-[(2,6-dichlorophenyl)methoxy]-9b-(4-fluorobenzenesulfonyl)-1H,2H,3H,3aH,4H,5H,9bH-benzo[e]indol-3-yl]-2-oxoethyl}-1λ^6-thiomorpholine-1,1-dione]

Continued, molecule first:

Row | Compound | EC50 [nM]
10 | CS(=O)(=O)CC(=O)N1CC[C@@]2(S(=O)(=O)c3ccc(F)cc3)c3ccc(OCc4cc(F)ccc4Cl)cc3CC[C@@H]12 [Example 195, 1-[(3 aR,9bR)-7-[(2-chloro-5-fluorophenyl)methoxy]-9b-(4-fluorobenzenesulfonyl)-1H,2H,3H,3aH,4H,5H,9bH-benzo[e]indol-3-yl]-2-methanesulfonylethan-1-one] | 158
11 | O=C(C1CCS(=O)(=O)CC1)N1CC[C@@]2(S(=O)(=O)c3ccccc3)c3ccc(OCC4CCCCC4)cc3CC[C@@H]12 [Example 125, 4-[(3aR,9bR)-9b-(benzenesulfonyl)-7-(cyclohexylmethoxy)-1H,2H,3H,3aH,4H,5H,9bH-benzo[e]indole-3-carbonyl]-1λ^6-thiane-1,1-dione] | 24
12 | O=C(C1CCS(=O)(=O)CC1)N1CC[C@@]2(S(=O)(=O)c3ccc(F)cc3)c3ccc(Cc4ccc(Cl)cc4)cc3CC[C@@H]12 [Example 42, 4-[(3aR,9bR)-7-[(4-chlorophenyl)methyl]-9b-(4-fluorobenzenesulfonyl)-1H,2H,3H,3aH,4H,5H,9bH-benzo[e]indole-3-carbonyl]-1λ^6-thiane-1,1-dione] | 1.8
13 | CC(=O)N1CCC(C(=O)N2CC[C@@]3(S(=O)(=O)c4ccc(F)cc4)c4ccc(OCc5c(F)cccc5Cl)cc4CC[C@@H]23)CC1 [Example 167, 1-{4-[(3aR,9bR)-7-[(2-chloro-6-fluorophenyl)methoxy]-9b-(4-fluorobenzenesulfonyl)-1H,2H,3H,3aH,4H,5H,9bH-benzo[e]indole-3-carbonyl]piperidin-1-yl}ethan-1-one] | 13
14 | O=C(C1CCC(B(O)O)CC1)N1CC[C@@]2(S(=O)(=O)c3ccc(F)cc3)c3ccc(OCc4c(F)cccc4C(F)(F)F)cc3CC[C@@H]12 (stereo partly drawn) [Example 13, (4-((3aR,9bR)-7-((2-fluoro-6-(trifluoromethyl)benzyl)oxy)-9b-((4-fluorophenyl)sulfonyl)-2,3,3a,4,5,9b-hexahydro-1H-benzo[e]indole-3-carbonyl)cyclohexyl)boronic acid] | 1.5
15 | CC(=O)N1CCC(CN2CC[C@@]3(S(=O)(=O)c4ccc(F)cc4)c4ccc(OCc5c(F)cccc5C(F)(F)F)cc4CC[C@@H]23)CC1 [Example 51, 1-(4-{[(3aR,9bR)-7-{[2-fluoro-6-(trifluoromethyl)phenyl]methoxy} -9b-(4-fluorobenzenesulfonyl)-1H,2H,3H,3aH,4H,5H,9bH-benzo[e]indol-3-yl]methyl}piperidin-1-yl)ethan-1-one] | 32
16 | O=C(C1CCS(=O)(=O)C1)N1CC[C@@]2(S(=O)(=O)c3ccc(F)cc3)c3ccc(OCc4c(F)cc(F)cc4Cl)cc3CC[C@@H]12 (stereo partly drawn) [Example 218, 3-[(3aR,9bR)-7-[(2-chloro-4,6-difluorophenyl)methoxy]-9b-(4-fluorobenzenesulfonyl)-1H,2H,3H,3aH,4H,5H,9bH-benzo[e]indole-3-carbonyl]-1λ^6-thiolane-1,1-dione] | 12
17 | O=C(C1CCS(=O)(=O)CC1)N1CC[C@@]2(S(=O)(=O)c3ccc(F)cc3)c3ccc(Oc4ccccc4)cc3CC[C@@H]12 [Example 36] | 4.1
18 | O=C(CC1CCS(=O)(=O)C1)N1CC[C@@]2(S(=O)(=O)c3ccc(F)cc3)c3ccc(OCc4c(F)cccc4C(F)(F)F)cc3CC[C@@H]12 (mixture of isomers) [Example 17] | 8.2
19 | O=C(O)[C@H]1CC[C@H](C(=O)N2CC[C@@]3(S(=O)(=O)c4ccc(F)cc4)c4ccc(Oc5c(F)cccc5Cl)cc4CC[C@@H]23)CC1 [Example 37, (1r,4r)-4-[(3aR,9bR)-7-(2-chloro-6-fluorophenoxy)-9b-(4-fluorobenzenesulfonyl)-1H,2H,3H,3aH,4H,5H,9bH-benzo[e]indole-3-carbonyl]cyclohexane-1-carboxylic acid] | 3.3
20 | COC(=O)[C@H]1CC[C@H](C(=O)N2CC[C@@]3(S(=O)(=O)c4ccc(F)cc4)c4ccc(OCc5cc(F)ccc5Cl)cc4CC[C@@H]23)CC1 [Example 176, methyl (1r,4r)-4-[(3aR,9bR)-7-[(2-chloro-5-fluorophenyl)methoxy]-9b-(4-fluorobenzenesulfonyl)-1H,2H,3H,3aH,4H,5H,9bH-benzo[e]indole-3-carbonyl]cyclohexane-1-carboxylate] | 56
21 | O=C(O)[C@H]1CC[C@H](C(=O)N2CC[C@@]3(S(=O)(=O)c4ccc(F)cc4)c4ccc(OCc5cc(F)ccc5Cl)cc4CC[C@@H]23)CC1 [Example 175, (1r,4r)-4-[(3aR,9bR)-7-[(2-chloro-5-fluorophenyl)methoxy]-9b-(4-fluorobenzenesulfonyl)-1H,2H,3H,3aH,4H,5H,9bH-benzo[e]indole-3-carbonyl]cyclohexane-1-carboxylic acid] | 9.5
22 | CC(C#N)CN1C(=O)CC[C@H]1C(=O)N1CC[C@@]2(S(=O)(=O)c3ccc(F)cc3)c3ccc(OCc4c(F)cccc4C(F)(F)F)cc3CC[C@@H]12 (stereo partly drawn) [Example 29, 3-[(2S)-2-[(3aR,9bR)-7-{[2-fluoro-6-(trifluoromethyl)phenyl]methoxy} -9b-(4-fluorobenzenesulfonyl)-1H,2H,3H,3aH,4H,5H9bH-benzo[e]indole-3-carbonyl]-5-oxopyrrolidin-1-yl]-2-methylpropanenitrile] | 3.6
